Assay [1] concerns the target T1, vanilloid receptor 1 (VR1/TRPV1) of the rat species (Rattus norvegicus, UniProt O35433).
T1 construct: The spinal column is removed from decapitated rats; from tissue; host or cells: primary cells dissociated from rat dorsal root ganglia
The assay can be described thus: FLIPR Ca2+ influx assay on rat dorsal root ganglia cells (pharmacological method I). The format is cell-based. The settings on record: table 4, capsaicin. The procedure, abridged:
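Primary rat dorsal root ganglion cells loaded with 2 μM Fluo-4, Ca2+ influx read on FLIPR as peak fluorescence. Triplicates, at least 3 independent experiments.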

A further assay deals with T2, vanilloid receptor (VR1) (Homo sapiens, UniProt Q8NER1).
T2 construct: expressed in transfected cells; host or cells: CHO K1 cells (ECACC), stably transfected
T2 sequence (Q8NER1 whole entry): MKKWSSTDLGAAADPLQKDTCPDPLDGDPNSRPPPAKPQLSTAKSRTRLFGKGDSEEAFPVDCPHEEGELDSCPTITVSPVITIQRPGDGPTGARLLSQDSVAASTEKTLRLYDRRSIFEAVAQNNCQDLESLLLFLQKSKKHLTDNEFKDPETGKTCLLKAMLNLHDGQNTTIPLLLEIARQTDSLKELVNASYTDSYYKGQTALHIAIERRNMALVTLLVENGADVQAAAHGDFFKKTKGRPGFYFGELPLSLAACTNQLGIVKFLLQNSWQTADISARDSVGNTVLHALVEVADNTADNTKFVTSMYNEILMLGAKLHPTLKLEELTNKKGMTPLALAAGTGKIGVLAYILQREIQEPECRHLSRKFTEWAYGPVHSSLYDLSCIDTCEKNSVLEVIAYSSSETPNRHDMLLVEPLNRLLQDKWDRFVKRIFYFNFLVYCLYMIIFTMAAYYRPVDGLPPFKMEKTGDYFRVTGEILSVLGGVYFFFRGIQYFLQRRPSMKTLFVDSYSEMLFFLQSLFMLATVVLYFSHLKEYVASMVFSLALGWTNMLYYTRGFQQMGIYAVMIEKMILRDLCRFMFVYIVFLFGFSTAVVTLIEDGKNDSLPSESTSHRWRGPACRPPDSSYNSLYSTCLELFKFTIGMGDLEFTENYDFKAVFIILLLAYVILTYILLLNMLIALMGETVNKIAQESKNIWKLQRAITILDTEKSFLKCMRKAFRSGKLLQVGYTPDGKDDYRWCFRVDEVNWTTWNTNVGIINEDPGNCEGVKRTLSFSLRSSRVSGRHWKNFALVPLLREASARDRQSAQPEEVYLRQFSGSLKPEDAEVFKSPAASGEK
The assay can be described thus: FLIPR Ca2+ influx assay on CHO K1 cells transfected with the VR1 gene (pharmacological method II). The class given is cell-based. The settings on record: table 4; capsaicin; read-out: Ki (human) Cap.

A further assay has as its target VR1/TRPV1 receptor (Homo sapiens, UniProt Q8NER1). The assay is described as follows: IC50 (human) after pH stimulus. The format is cell-based. The following applies: for IC50: table 4.
For assay [2], the system named is capsaicin induced hypothermie. The assay is described as follows: Hypothermie assay in the mouse (capsaicin induced hypothermie). The format is in vivo. The settings on record: mouse, read-out: inhibition hypothermie (n = 5); for inhibition in vivo at 0.3 mg/kg: 0.3 mg/kg body weight po. The protocol: V. Hypothermie Assay an der Maus
Male NMRI mice (weight 25-35 gram, supplier IFFA CREDO, Bruxelles, Belgium) are used in the hypothermie assay. The animals are kept under standardized conditions: light/darkness interval (6:00 to 18:00 light; 18:00 to 6:00 Uhr darkness), room temperature 19-22° C., relative humidity 35-70%, 15 times per hour change of compartment air, airflow <0.2 m/sec. The animals were fed on a standardized diet (ssniff diet, ssniff Spezialdiäten GmbH, Soest, Germany) and tap water. Water and diet were detracted during the experiment. All animals were used once in the experiment. The animals were allowed to adapt to the experimental conditions for at least 5 days.
The acute application of capsaicin (VR-1 agonist) leads to a decrease of the core body temperature in rat and mice via stimulation of heat sensors. Only compounds which act as specific VR-1-receptor antagonists can antagonize the capsaicin induced hypothermie. In contrast, morphine induced hypothermie is not antagonized by VR-1 antagonists. Thus, this experiment is suitable for the determination of compounds that act as VR1-antagonists via their effect on the core body temperature.
For the determination of the core body temperature a digital thermometer was used (Thermalert TH-5, physitemp, Clifton N.J., USA). The measuring head was inserted into the rectum.
The individual basis value is determined by measuring the body temperature twice in an interval of about half an hour. […] […] The test compound is given 10 min (i.v.) or 15 min (p.o.), respectively, before application of capsaicin. The body temperature is determined 7.5/15 and 30 min after application of capsaicin (i.v.+i.p.) or 15/30/60/90/120 min after application of capsaicin (p.o.+i.p.), respectively. In addition, another group of mice is only given the test compound or a vehicle control.
The measuring points are given as average values±S.E.M. of the absolute values. The antagonistic effect is given in percent of inhibition of capsaicin induced hypothermie.

Where two headings read alike, the source gives them in different places.

T1 sequence (O35433 whole entry): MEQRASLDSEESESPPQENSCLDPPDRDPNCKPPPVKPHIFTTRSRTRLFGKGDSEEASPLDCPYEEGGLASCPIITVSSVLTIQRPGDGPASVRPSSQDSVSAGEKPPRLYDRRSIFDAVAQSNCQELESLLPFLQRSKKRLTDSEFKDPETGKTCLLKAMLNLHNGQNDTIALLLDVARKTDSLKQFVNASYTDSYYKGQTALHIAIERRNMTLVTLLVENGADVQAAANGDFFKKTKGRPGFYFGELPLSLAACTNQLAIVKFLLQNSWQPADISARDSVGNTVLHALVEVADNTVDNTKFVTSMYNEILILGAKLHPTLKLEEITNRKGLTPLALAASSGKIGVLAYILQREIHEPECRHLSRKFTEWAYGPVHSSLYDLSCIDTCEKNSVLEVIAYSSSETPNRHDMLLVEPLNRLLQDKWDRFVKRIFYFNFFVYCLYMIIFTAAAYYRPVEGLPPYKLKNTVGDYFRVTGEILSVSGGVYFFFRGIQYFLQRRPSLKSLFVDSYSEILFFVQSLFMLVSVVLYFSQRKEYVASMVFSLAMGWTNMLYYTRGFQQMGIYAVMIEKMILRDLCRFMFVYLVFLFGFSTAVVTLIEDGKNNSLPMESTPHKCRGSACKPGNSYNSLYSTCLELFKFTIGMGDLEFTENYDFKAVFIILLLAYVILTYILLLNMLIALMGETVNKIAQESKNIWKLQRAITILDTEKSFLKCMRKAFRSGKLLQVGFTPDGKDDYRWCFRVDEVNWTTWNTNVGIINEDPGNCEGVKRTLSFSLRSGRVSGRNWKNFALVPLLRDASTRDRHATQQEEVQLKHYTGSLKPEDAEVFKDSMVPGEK
Sequence of VR1/TRPV1 receptor (Q8NER1 whole entry): as the sequence (Q8NER1 whole entry) above

Regarding `COc1cccc(COc2nc(C(F)(F)F)ccc2CNC(=O)C(C)c2ccc(NS(C)(=O)=O)c(F)c2)c1` (centres unmarked) [Example 107, 2-(3-fluoro-4-methylsulfonamido-phenyl)-N-[2-(3-methoxy-benzyloxy)-6-trifluoromethyl-pyridin-3-ylmethyl]-propionamide], the figures for the Ki (in assay [1] (Ki (rat) Cap.); at vanilloid receptor (VR1)) were 1 nM and 0.8 nM, respectively. Moreover, the IC50 on VR1/TRPV1 receptor amounted to 43.7 nM. For the same molecule, in assay [2], the inhibition in vivo at 0.3 mg/kg is 21%.

As to `CC(C(=O)NCc1ccc(C(F)(F)F)nc1N1CCC(F)CC1)c1ccc(NS(C)(=O)=O)c(F)c1` (centres unmarked) [Example 138, 2-(3-fluoro-4-methylsulfonamido-phenyl)-N-(4-fluoro-6′-trifluoromethyl-3,4,5,6-tetrahydro-2H-[1,2′]bipyridinyl-3′-ylmethyl)-propionamide], the Ki came to 1.2 nM in assay [1] (read-out: Ki (rat) Cap.) and 0.5 nM at vanilloid receptor (VR1). Moreover, the IC50 against VR1/TRPV1 receptor amounted to 19.8 nM. In addition, the inhibition in vivo at 0.3 mg/kg in assay [2] turned out to be 0%.

Consider `CC(C(=O)NCc1ccc(C(F)(F)F)cc1N1CCN(c2ccccc2)CC1)c1ccc(NS(C)(=O)=O)c(F)c1` (centres unmarked) [Example 216], for which the Ki in assay [1] (read-out: Ki (rat) Cap.) was found to be 0.5 nM; on vanilloid receptor (VR1) it was 2 nM. On VR1/TRPV1 receptor, this molecule yielded an IC50 of 64.7 nM. Moreover, in assay [2], the inhibition in vivo at 0.3 mg/kg is 4%.

As for `CC(C(=O)NCc1ccc(C(F)(F)F)nc1-c1ccc(F)cc1)c1ccc(NS(C)(=O)=O)c(F)c1` (centres unmarked) [Example 89], the Ki is 1.2 nM in assay [1] (read-out: Ki (rat) Cap.) and 0.4 nM at vanilloid receptor (VR1). On VR1/TRPV1 receptor, this molecule had an IC50 of 131 nM. In addition, in assay [2], the inhibition in vivo at 0.3 mg/kg was determined as 1%.

As to `CC(C(=O)NCc1ccc(C(F)(F)F)nc1-c1ccc(Cl)cc1)c1ccc(NS(C)(=O)=O)c(F)c1` (centres unmarked) [Example 147, N-[2-(4-chloro-phenyl)-6-trifluoromethyl-pyridin-3-ylmethyl]-2-(3-fluoro-4-methylsulfonamido-phenyl)-propionamide], the results for the Ki (in assay [1] (read-out: Ki (rat) Cap.); on vanilloid receptor (VR1)) were 1 nM and 0.7 nM, respectively. Also, the half-inhibitory concentration (IC50) on VR1/TRPV1 receptor was 10.4 nM. For the same molecule, the inhibition in vivo at 0.3 mg/kg in assay [2] was determined as 3%.

With `CC(C)CCOc1nc(C(F)(F)F)ccc1CNC(=O)C(C)c1ccc(NS(C)(=O)=O)c(F)c1` (centres unmarked) [Example 123, 2-(3-fluoro-4-methylsulfonamido-phenyl)-N-[2-(3-methyl-butoxy)-6-trifluoromethyl-pyridin-3-ylmethyl]-propionamide], the Ki in assay [1] (read-out: Ki (rat) Cap.) amounted to 0.6 nM; at vanilloid receptor (VR1), 0.8 nM. For the same molecule, the IC50 on VR1/TRPV1 receptor was 15.1 nM. Moreover, the inhibition in vivo at 0.3 mg/kg in assay [2] is 47%.

On to `CC(C(=O)NCc1ccc(C(F)(F)F)cc1OCc1ccccc1)c1ccc(NS(C)(=O)=O)c(F)c1` (centres unmarked) [Example 209, N-(2-benzyloxy-4-trifluoromethyl-benzyl)-2-(3-fluoro-4-methylsulfonamido-phenyl)-propionamide], for which the figures for the Ki (in assay [1] (read-out: Ki (rat) Cap.); on vanilloid receptor (VR1)) were 0.2 nM and 0.9 nM, respectively. The IC50 against VR1/TRPV1 receptor turned out to be 34.9 nM. Moreover, the inhibition in vivo at 3 mg/kg in assay [2] (3 mg/kg body weight po) is 46%.

`CC(C(=O)NCc1ccc(C(F)(F)F)nc1N1CCN(c2ncccc2Cl)CC1C)c1ccc(NS(C)(=O)=O)c(F)c1` (centres unmarked) [Example 194, N-{2-[4-(3-chloro-pyridin-2-yl)-2-methyl-piperazin-1-yl]-6-trifluoromethyl-pyridin-3-ylmethyl}-2-(3-fluoro-4-methylsulfonamido-phenyl)-propionamide]: the Ki is 3.8 nM in assay [1] (read-out: Ki (rat) Cap.) and 4.1 nM at vanilloid receptor (VR1). Also, the inhibition at 1 µM on VR1/TRPV1 receptor (@ 1 μM, ne = no effect, read-out: inhibition in percent, IC50 (human) after pH stimulus) worked out at 21%. Besides, the inhibition in vivo at 0.3 mg/kg in assay [2] came to 14%.

`CC(C(=O)NCc1ccc(C(F)(F)F)nc1OCC1CC1C)c1ccc(NS(C)(=O)=O)c(F)c1` (centres unmarked) [Example 124, 2-(3-fluoro-4-methylsulfonamido-phenyl)-N-[2-(2-methyl-cyclopropylmethoxy)-6-trifluoromethyl-pyridin-3-ylmethyl]-propionamide]: the Ki was 0.4 nM in assay [1] (read-out: Ki (rat) Cap.) and 0.3 nM on vanilloid receptor (VR1). The IC50 against VR1/TRPV1 receptor was 5.1 nM. For the same molecule, in assay [2], the inhibition in vivo at 0.3 mg/kg is 39%.

For `CC(C(=O)NCc1ccc(C(C)(C)C)cc1OC1CCCCC1)c1ccc(NS(C)(=O)=O)c(F)c1` (centres unmarked) [Example 154, N-(4-tert-butyl-2-cyclohexyloxy-benzyl)-2-(3-fluoro-4-methylsulfonamido-phenyl)-propionamide], the values for the Ki (in assay [1] (read-out: Ki (rat) Cap.); at vanilloid receptor (VR1)) were 1.7 nM and 8.1 nM, respectively. This molecule gave an IC50 against VR1/TRPV1 receptor of 534 nM. Further, the inhibition in vivo at 0.3 mg/kg in assay [2] came to 12%.

`C[C@@H](C(=O)NCc1ccc(C(F)(F)F)nc1-c1ccc(F)c(Cl)c1)c1ccc(NS(C)(=O)=O)c(F)c1` [Example 121, (R)-N-[2-(3-chloro-4-fluoro-phenyl)-6-trifluoromethyl-pyridin-3-ylmethyl]-2-(3-fluoro-4-methylsulfonamido-phenyl)-propionamide]: the Ki was determined as 5.8 nM in assay [1] (read-out: Ki (rat) Cap.) and 13.2 nM at vanilloid receptor (VR1). The inhibition at 10 µM on VR1/TRPV1 receptor (@ 10 μM, read-out: inhibition in percent, IC50 (human) after pH stimulus) amounted to 56%. In addition, the inhibition in vivo at 0.3 mg/kg in assay [2] was found to be 12%.

Take `C[C@@H](C(=O)NCc1ccc(C(F)(F)F)cc1N1CCCCC1)c1ccc(NS(C)(=O)=O)c(F)c1` [Example 32, (R)-2-(3-fluoro-4-(methylsulfonamido)phenyl)-N-(2-(piperidin-1-yl)-4-(trifluoromethyl)benzyl)propanamide]: the Ki in assay [1] (read-out: Ki (rat) Cap.) was 2.6 nM; on vanilloid receptor (VR1), 1.7 nM. This molecule also showed an IC50 against VR1/TRPV1 receptor of 135 nM. Further, the inhibition in vivo at 0.3 mg/kg in assay [2] worked out at 55%.

Take `COc1ccc(N2CCN(c3nc(C(F)(F)F)ccc3CNC(=O)C(C)c3ccc(NS(C)(=O)=O)c(F)c3)CC2)cc1` (centres unmarked) [Example 221, 2-(3-fluoro-4-methylsulfonamido-phenyl)-N-{2-[4-(4-methoxy-phenyl)-piperazin-1-yl]-6-trifluoromethyl-pyridin-3-ylmethyl}-propionamide]: the Ki in assay [1] (read-out: Ki (rat) Cap.) turned out to be 1.9 nM; on vanilloid receptor (VR1) it was 2.5 nM. This molecule returned an IC50 against VR1/TRPV1 receptor of 44.5 nM. In assay [2], the inhibition in vivo at 0.3 mg/kg was 18%.

With `CC1CCN(c2nc(C(F)(F)Cl)ccc2CNC(=O)C(C)c2ccc(NS(C)(=O)=O)c(F)c2)CC1` (centres unmarked) [Example 131], the Ki in assay [1] (read-out: Ki (rat) Cap.) was determined as 0.4 nM; on vanilloid receptor (VR1) it was 0.3 nM. For the same molecule, the 50% inhibitory concentration (IC50) on VR1/TRPV1 receptor was 5.9 nM. In addition, the inhibition in vivo at 0.3 mg/kg in assay [2] came out at 26%.

Take `CCCCSc1nc(C(F)(F)F)ccc1CNC(=O)C(C)c1ccc(NS(C)(=O)=O)c(F)c1` (centres unmarked) [Example 122]: the Ki in assay [1] (read-out: Ki (rat) Cap.) worked out at 0.6 nM; on vanilloid receptor (VR1), 0.7 nM. At VR1/TRPV1 receptor, this molecule returned an IC50 of 40.4 nM. Besides, the inhibition in vivo at 0.3 mg/kg in assay [2] was 33%.

As to `CCCCCOc1nc(C(F)(F)F)ccc1CNC(=O)C(C)c1ccc(NS(C)(=O)=O)c(F)c1` (centres unmarked) [Example 225, 2-(3-fluoro-4-methylsulfonamido-phenyl)-N-(2-pentyloxy-6-trifluoromethyl-pyridin-3-ylmethyl)-propionamide], the Ki in assay [1] (read-out: Ki (rat) Cap.) was 0.5 nM; at vanilloid receptor (VR1), 0.7 nM. Besides, at VR1/TRPV1 receptor, the IC50 was 27.3 nM. The inhibition in vivo at 0.3 mg/kg in assay [2] came out at 20%.

As to `CC(C(=O)NCc1ccc(C(F)(F)F)nc1N1Cc2ccccc2C1)c1ccc(NS(C)(=O)=O)c(F)c1` (centres unmarked) [Example 188, N-[2-(1,3-dihydro-isoindol-2-yl)-6-trifluoromethyl-pyridin-3-ylmethyl]-2-(3-fluoro-4-methylsulfonamido-phenyl)-propionamide], the Ki (in assay [1] (read-out: Ki (rat) Cap.); at vanilloid receptor (VR1)) was 5 nM throughout. In addition, half-maximal inhibition on VR1/TRPV1 receptor (IC50) was put at 192 nM. For the same molecule, the inhibition in vivo at 0.3 mg/kg in assay [2] is 0%.

The values are drawn from patent US8710233B2 (Gruenenthal GmbH, priority 2005, dated 2014).
